Data set [1] has as its system right ventricular papillary muscle. The data set is described as follows: Measurement of the contractile force in vitro. Particulars: 1 Hz; expected therapeutic concentration. Details: species or system rabbits. The method, then:
The method used is essentially in agreement with the method of Virag et al. [Gen. Pharmac. 27, pp. 551-556 (1996)].
Papillary muscles of hearts of rabbits (weighing 2 to 3 kg each) were prepared and placed into an organ bath (37° C.) containing modified Tyrode's nutrient medium. The preparations were stimulated by point-stimulation with a basal frequency of 1 Hz. The contractile force was measured by using an auxotonic method. The compounds under test were directly added into the organ bath after dilution of the stock solution according to the final concentration desired. The effects of compounds were observed after an incubation period of 30 to 45 minutes.
Using this method used information can be obtained concerning the direct cardiac effects of the compounds investigated. The effect of the compound of Example 15 on the contractile force is illustrated on the right ventricular papillary muscle at a frequency of 1 Hz in FIG. 2.

The next data set concerns dog Purkinje's fibres. The data set is described as follows: Effect on early after-depolarization induced by dofetilide and BaCl2. Particulars: 2 μM; EAD induced by 1 μM dofetilide and 20 μM BaCl2. The method, then: An early after-depolarization (EAD) was induced on dog Purkinje's fibres by the simultaneous use of 1 μM dofetilide and 20 μM BaCl2. These EAD-s were abolished by the addition of the compound (2 μM) of Example 15.

Data set [2] has as its system arrhythmias following coronary artery occlusion in conscious rats. Nature of the data set: Occlusion arrhythmia following acute coronary artery ligation in conscious rats. In kind it is in vivo, male rats. An excerpt:
The method used is essentially in agreement with the method of Lepran et al. [J. Pharmacol. Methods 9, pp. 219-230 (1983)].
During a previous operation, male rats weighing 340 to 360 g each were fitted with a loose surgical thread loop around the left descending coronary vessel, at about 2 mm from its origin. The ends of the loop thread were led out from the chest under the skin, then the surgical wound was closed. After complete recovery from this previous operation (7 to 8 days) acute myocardial ischaemia was induced by contracting the loose ligation in the conscious, freely moving animals. ECG was continuously registered by using bipolar chest electrodes before the ligation of the coronary artery and during the first 15 minutes of ischaemia. The ratio of survivals was determined and the developed arrhythmias were evaluated according to the Lambeth Convention [Walker et al.: Cardiovasc. Res. 22, 447-455 (1988)]. For evaluation of the arrhythmic episodes a score system was also employed by considering the severity of episodes on the basis of a score system from 0 to 6. Both d-sotalol and the substance of Example 15, respectively, were suspended in 1% methylcellulose and administered orally through a gastric sound at 1 hour before the compression of the coronary vessel. The control animals received a treatment with the same volume, i.e. 5 ml/kg of vehicle.

The mark [3] stands for this setting: p.o. 25 mg/kg, first 15 minutes.

As to `Cc1cccc(C)c1OCC(C)N(C)CCc1ccc(NS(C)(=O)=O)cc1.Cl` (stereo not drawn) [Example 15, N-[4-[2-[N-Methyl-N-[2-(2,6-dimethylphenoxy)-1-methylethyl]amino]ethyl]phenyl]methanesulfonamide hydrochloride], the “negative inotropic action (in words)” value in data set [1] was “did not induce any negative inotropic action”. Moreover, the “effect on early after-depolarization (EAD) (in words)” value with dog Purkinje's fibres is “abolished”. Further, in data set [2] (25 mg/kg, first 15 minutes of myocardial infarction), the “heart rate (in words)” value was “statistically unchanged”. Moreover, in data set [2] (oral administration), the “antiarrhythmic effect (in words)” value is reported as “showed an antiarrhythmic effect even after oral administration”. Moreover, in data set [2] (p.o. 25 mg/kg), the “Survival 15 minutes” value is 8/50 and the “Survival 16 hours” value is reported as 7/44. In data set [2] (setting [3]), the “Occurrence of arrhythmias: Brady” value was 2/12, the “Occurrence of arrhythmias: Free (no arrhythmia was observed)” value is listed as 3/19, the “Occurrence of arrhythmias: Other” value is listed as 9/56 and the “Occurrence of arrhythmias: VF” value is recorded as 10/63. The “Occurrence of arrhythmias: VT” value in data set [2] (setting [3]) is 12/75. Moreover, in data set [2] (p.o. 25 mg/kg, score system from 0 to 6), the “Arrhythmia Score” value was 3.94 ± 0.64.

(Values after patent US6265445A, “Antiarrhythmic compounds” (priority 1997, dated 2001).)
